Entries after “also recorded” stand apart in the source; their conditions may differ.
Legend:
[1] = system: EGFR; assay: Immunoblot of EGF-induced EGFR phosphorylation in bladder and lung cancer cell lines; assay type: cell-based, human; settings: all bladder and lung cancer cell lines tested; 0.1 μM erlotinib 3 hrs before 10 ng/ml EGF
Procedure: Antibodies against EGFR, phospho-tyrosine (P-Tyr-100), phospho-EGFR (Tyr1068), phospho-HER2/ErbB2 (Tyr1248), AKT, phospho-AKT (Ser473), p44/42 MAPK, (Erk1/2), phospho-p44/42 MAPK (Erk1/2) (Thr202/Tyr204), and PTEN were obtained from Cell Signaling Technology, Inc. (Beverly, Mass.). Monoclonal anti-P-Actin antibody was obtained from Sigma (St. Louis, Mo.). Polyclonal anti-Mig6 antibody was a generous gift from Dr. Ferby (15). When appropriate, cells were cultured in serum free medium overnight, pretreated with the indicated inhibitors for 3 hrs or […], and the treated with 10 ng/ml EGF for 10 or 30 min. […] The membrane was probed with primary antibody followed by HRP-conjugated appropriate secondary antibodies (Santa Cruz Biotech, Santa Cruz, Calif.), and detected by enhanced chemiluminescence (ECL, GE Health Care, Piscataway, N.J.).

[2] = system: PANC215; assay: Erlotinib treatment of directly xenografted pancreatic tumors; assay type: in vivo, nude mice
Procedure: The xenografts were generated and erlotinib treatment was performed as published previously (17, 18). Relative tumor growth inhibition (TGI) was calculated as the relative tumor growth of treated mice divided by relative tumor growth of control mice (T/C).

[3] = system: Mig6; assay: Immunoblot analysis of Mig6 expression in 358 cells; assay type: cell-based, human; settings: 24 hrs
Procedure: (§1) Antibodies against EGFR, phospho-tyrosine (P-Tyr-100), phospho-EGFR (Tyr1068), phospho-HER2/ErbB2 (Tyr1248), AKT, phospho-AKT (Ser473), p44/42 MAPK, (Erk1/2), phospho-p44/42 MAPK (Erk1/2) (Thr202/Tyr204), and PTEN were obtained from Cell Signaling Technology, Inc. (Beverly, Mass.). Monoclonal anti-P-Actin antibody was obtained from Sigma (St. Louis, Mo.). Polyclonal anti-Mig6 antibody was a generous gift from Dr. Ferby (15). When appropriate, cells were cultured in serum free medium overnight, pretreated with the indicated inhibitors for 3 hrs or 2.4 hrs, and the treated with 10 ng/ml EGF for 10 or 30 min. Equal amounts of protein were mixed with Laemmli sample buffer, run on 4-12% NuPAGE gels and transferred to nitrocellulose membrane (Bio-Rad Laboratories, Hercules, Calif.). The membrane was probed with primary antibody followed by HRP-conjugated appropriate secondary antibodies (Santa Cruz Biotech, Santa Cruz, Calif.), and detected by enhanced chemiluminescence (ECL, GE Health Care, Piscataway, N.J.).

[4] = system: serum proteins; settings: cited from earlier work
[5] = system: PANC294; assay: Erlotinib treatment of directly xenografted pancreatic tumors; assay type: in vivo, nude mice
Procedure: (§3) The xenografts were generated and erlotinib treatment was performed as published previously (17, 18). Relative tumor growth inhibition (TGI) was calculated as the relative tumor growth of treated mice divided by relative tumor growth of control mice (T/C). The animals were maintained in accordance to guidelines of the American Association of Laboratory Animal Care and the research protocol was approved by the Johns Hopkins University Animal Use and Care Committee.

[6] = system: Mig6; assay: Immunoblot analysis of Mig6 expression in SCC-R cells; assay type: cell-based, human; settings: for expression of Mig6: AKI or U0126 10 or 20 μM, LY294002 10 or 25 μM, rapamycin 1 or 2 μM
Excerpt: as §1, with “When appropriate, cells were cultured in serum free medium overnight, pretreated with the indicated inhibitors for 3 hrs or 2.4 hrs, and the treated with 10 ng/ml EGF for 10 or 30 min.” left out

[7] = 150 mg per day; cited from earlier work
[8] = system: SCC-S and SCC-R cells; assay: Cell viability and drug sensitivity assay (Calcein AM), erlotinib-sensitive vs -resistant isogenic cells; assay type: cell-based, human; settings: erlotinib 72 hrs, cell viability
Procedure: Drug resistant cell lines were generated via a process of slowly escalating exposure to erlotinib, as reported previously (16). SCC-S is used to designate the parental UM-SCCI cells exposed to DMSO, and SCC-R refers to the erlotinib resistant clone.
(§2) Cells were plated at a density of 3000/well in 96-well plates. The following day, cells were treated with 0, 0.01, 0.033, 0.1, 0.33, 1, or 3.3 μM erlotinib for an additional 72 hrs. Cell viability was subsequently assayed using Calcein AM (Invitrogen), Fluorescence signals generated as a result of Calcein AM cleavage by viable cells were read by a Molecular Devices plate reader (Sunnyvale, Calif.) using an excitation frequency of 480 nm, and an emission frequency of 535 nm.

[9] = system: Mig6; assay: Immunoblot analysis of Mig6 expression in 358/TGFβ1-day 21 and 358/TGFβ3-day 21 cells; assay type: cell-based, human; settings: 24 hrs
Procedure: as §1

[10] = system: PANC420; assay: Erlotinib treatment of directly xenografted pancreatic tumors; assay type: in vivo, nude mice
Procedure: as §3

[11] = system: PANC140; assay: as above; assay type: in vivo, nude mice
Procedure: as §3

[12] = system: PANC410; assay: as above; assay type: in vivo, nude mice
Procedure: as §3

[13] = system: BML-5; assay: Erlotinib treatment of directly xenografted lung tumors; assay type: in vivo, nude mice; settings: BML-5 compared with BML-1, BML-7, BML-11
Procedure: as §3

[14] = system: H358 cells; assay: Cell viability of parental and TGF β-induced H358 cells; assay type: cell-based, human; settings: TGF-β-induced mesenchymal-like cells vs parental
Procedure: as §2

[15] = system: EGFR; assay: Immunoblot/densitometric analysis of phospho-EGFR/total EGFR in SCC-R cells; assay type: cell-based, human; settings: inhibitor 24 hrs (25 μM LY294002, 20 μM AKI, 2 μM rapamycin, 20 μM U0126), then 10 ng/ml EGF 30 min
Procedure: as §1

[16] = system: tumors in control Errfil+/+ mice; settings: cited from earlier work
[17] = system: NSCLC; settings: patients randomized to gefinitib or placebo; cited from earlier work
[18] = system: tumors in Errfil−/− mice; settings: cited from earlier work

## C#Cc1cccc(Nc2ncnc3cc(OCCOC)c(OCCOC)cc23)c1 [erlotinib]
[1]
  ligand-induced EGFR phosphorylation: effectively block
[2]
  erlotinib responsiveness of xenografted pancreatic tumor: erlotinib-resistant
[3]
  expression of Mig6: reduced
[4]
  bound to serum proteins: 90%
[5]
  erlotinib responsiveness of xenografted pancreatic tumor: erlotinib-resistant
[6]; 0.2 or 1 μM erlotinib, 24 hrs
  basal Mig6 expression: only a slight decrease
[6]; erlotinib pretreatment 30 min then 10 ng/ml EGF 24 hrs
  EGF-induced Mig6 upregulation: completely abolish
[7]
  steady-state serum concentration, median: 2.9 µM
[8]
  IC50 of SCC-R cells relative to SCC-S cells: > 10 times
[9]
  expression of Mig6: failed to suppress
[10]
  erlotinib responsiveness of xenografted pancreatic tumor: erlotinib-resistant
[11]
  erlotinib responsiveness of xenografted pancreatic tumor: erlotinib-resistant
[12]
  erlotinib responsiveness of xenografted pancreatic tumor: erlotinib-sensitive
[13]
  response of lung xenograft to erlotinib (tumor growth): sensitive; also recorded: better response
[14]
  resistance to erlotinib, cell viability: acquired increasing resistance

## O=c1[nH]c2ccccc2n1C1CCN(Cc2ccc(-c3nc4cc5[nH]cnc5cc4nc3-c3ccccc3)cc2)CC1 [AKI]
[6]; 24 hrs
  expression of Mig6: decreased
[15]
  ratio of phospho-EGFR to EGFR: increased

## N#CC(=C(/N)Sc1ccccc1N)/C(C#N)=C(\N)Sc1ccccc1N [U0126]
[3]
  expression of Mig6: reduced
[6]; 24 hrs
  expression of Mig6: decreased
[15]
  ratio of phospho-EGFR to EGFR: increased

## COc1cc2ncnc(Nc3ccc(F)c(Cl)c3)c2cc1OCCCN1CCOCC1 [gefitinib]
[16]
  tumor response to gefitinib: did not respond
[17]
  overall difference of PFS vs placebo: 7 days
[18]; Errfil−/− mice
  sensitivity of carcinogen-induced tumors to gefitinib: unusually sensitive
[18]; in 1 week following initiation of gefitinib treatment
  tumor regression: more than 50%

— patent publication US20130190310A1, “MIG6 AND THERAPEUTIC EFFICACY” (THE JOHNS HOPKINS UNIVERSITY, priority 2010, published 2013)
